Where two headings read alike, the source gives them in different places. Where a SMILES comes first, the peptide text is derived from it. [ ]: non-standard residue; d: D form. The star is where a group is joined. Doxorubicin(3'-N) = COc1cccc2c1C(=O)c1c(O)c3c(c(O)c1C2=O)C[C@@](O)(C(=O)CO)C[C@@H]3O[C@H]1C[C@H](N*)[C@H](O)[C@H](C)O1; Thyronine(3,5,3'-I3) = N[C@@H](Cc1cc(I)c(Oc2ccc(O)c(I)c2)c(I)c1)C(=O)O; Hexanoyl(6-maleimido) = O=C1C=CC(=O)N1CCCCCC(=O)*; Propanoyl(3-maleimido) = O=C1C=CC(=O)N1CCC(=O)*; X1 = O=C1C=CC(=O)N1CCOCCOCCOCCC(=O)*; X3 = O=C1C=CC(=O)N1CCOCCOCCC(=O)*; MeOCH2CH2OCH2CO = COCCOCC(=O)*; PEG4 = NCCOCCOCCOCCOCCC(=O)O
Legend:
[1] = system: Human hepatoma HepG2 cells; assay: Human liver cancer HepG2 tumors in nude mice; type: in vivo; conditions: for inhibition in vivo at 54 µmol/kg: HepG2, iv, 672 h
Experimental: • 1. Animals: nude mice aged 6-8 weeks, all female. • 2. Preparation of tumor models
Human hepatoma HepG2 cells were purchased from ATCC and identified according to the instructions provided. […] Randomization was performed when the tumor size reached 100 mm^3.
Treatment was then initiated, and the day of initiation of treatment was counted as Day 1. • 3) Treatment process
According to the clinical application of the corresponding compound, the drug was administered intravenously (IV). The compound and the control drug were administered at a dose of 54 umol/kg, and DOX could only be administered at a dose of 18 umol/kg due to toxicity limitations.

[2] = system: acidified human breast cancer (MDA-MB435) tumor tissue homogenate; assay: Activation efficiency of S-C-A linkers in tumor tissue homogenate, HPLC; type: biochemical; conditions: C is AAN, 1 mg/ml, homogenate pH 6.0, 37° C.
Experimental: When C is AAN, the activation of the different S-C-A linkers and the control linker is evaluated in an activation assay. They were dissolved and diluted tenfold using S-C-A conjugates to a concentration of 0.1 mM/ml. The sample compounds were added at a concentration of 1 mg/ml to 100 μg of acidified human breast cancer (MDA—MB435) tumor tissue homogenate (pH 6.0) at 37° C. The enzyme in the tumor tissue homogenate was released and detected by HPLC to compare the efficiency of activation of the linker by the tumor tissue.
The effect of the D-type tripeptide on the activation efficiency was examined in comparison to the native peptide sequence linker cleaved by Legumain, S1 in MI-S is —CH2CH2—CONH—, S2: 2 peg.

M2 macrophages = assay: Cytotoxicity screening, inhibition rate of M2 macrophages at 10 uM; type: cell-based, C57BL/6 mice; conditions: 10 uM drug per well, 3 wells, relative to the drug-free group
Experimental: After the cell count in Example 13, the cell concentration was adjusted with the culture medium, and the cells were seeded in a 96-well culture plate at […] of cell suspension per well, wherein the seeding concentration of CD8+ T cells was 100000 cells/well, and the seeding concentration of M2 macrophages was 20000 cells/well. The 96-well plate was incubated overnight for 24 hour at 37° C. in a carbon dioxide (5%) incubator. After 24 hours, 100 ul of cell culture solutions containing different concentrations of drugs were added to the 96-well culture plate. At the same time, a control well (0.1% DMSO) with no drug added and only the corresponding drug solvent and a zero-adjusted well (Blank) with only medium and no cells added was set. Each set was prepared in triplicate and the plates were incubated for 48 hours at 37° C. in a 5% CO2 incubator. After 48 hours, 20 μl MTT (5 mg/ml) was added to each well and the incubation was continued for 4 hours. The culture medium was then gently aspirated, and 150 μl DMSO was added to each well as solvent for dissolution. After dissolution, the absorbance at 490 nm was measured with a microplate reader.
Cytotoxicity screening experiments for some compounds were performed for M2 macrophage inhibition as in embodiment 14.

HT1080 tumors = assay: HT1080 tumor model in nude mice, 36 umol/kg; type: in vivo; conditions: for inhibition in vivo at 36 µmol/kg: Mus musculus, read-out: Tumor inhibition rate Day 28
Experimental: • 1. Animals: nude mice aged 6-8 weeks, all female. • 2. Preparation of tumor models • 1) HT1080 cells were purchased from ATCC and characterized according to the instructions provided. […] Randomization was performed when the tumor size reached 100 mm^3. Treatment was then initiated, and the day of initiation of treatment was counted as Day 1. • 3) Treatment process
According to the clinical application of the corresponding compound, the drug was administered intravenously (IV). The compounds indicated in the table were administered at a low dose and at the same dose of 36 umol/kg.

[3] = Water solubility test (observation and HPLC); type: physicochemical; conditions: thermodynamic from solid
Experimental: The compounds prepared in accordance with the examples of the disclosure and the reference compounds C1, C2, C3 and C4 were lyophilized (−70° C.).

CT26 tumor cells = assay: MTT assay of N-CBP and HSA-QHL-095-N-CBP; type: cell-based; conditions: 48 hours, CT26 tumor cells and CD8+ T cells seeded
Experimental: After counting the separated and cultured cells, adjust the cell concentration with culture medium, inoculate the cells on a 96-well culture plate with 100 μl cell suspension per well, 100000 cells/well of CD8+ T cells and 20000 cells/well of CT26 tumor cells. The 96-well plate was incubated overnight for 24 hour at 37° C. in a carbon dioxide (5%) incubator. After 24 hours, 100 ul of cell culture medium containing different concentrations of drugs was added to the 96-well culture plate, and control wells (0.1% DMSO) without drugs but with corresponding drug solvent were set, and blank wells (Blank) with medium but without cells were set. Each set was prepared in triplicate and the plates were incubated for 48 hours at 37° C. in a 5% CO2 incubator. After 48 hours, 20 μl MTT (5 mg/ml) was added to each well and the incubation was continued for 4 hours. The culture medium was then gently aspirated, and 150 μl DMSO was added to each well as solvent for dissolution. After dissolution, the absorbance at 490 nm was measured with a microplate reader.

NAFLD model mice = assay: Nonalcoholic fatty liver disease (NAFLD) model mice, serum HDL-C and LDL-C; type: in vivo; conditions: NAFLD (high-fat diet) C57 mice, IV twice a week for 8 weeks, 12 hour after last administration, normal group 100%
Experimental: • Methods: C57 mice were randomly divided into normal group (standard diet), model group (high-fat diet), simvastatin group (positive control, 3 mg/kg) and drug group (50 mg/kg), with 6 mice in each group. The normal group was fed with standard diet, and the other groups were fed with high-fat diet to induce NAFLD model. At the same time of modeling, the mice in each group were given the corresponding dose of 48 umol/kg medicine IV twice a week for 8 weeks in total. 12 hour after the last administration, the serum biochemical indicators were determined by automatic biochemical analyzer: High density lipoprotein cholesterol (HDL-C), and low density lipoprotein (LDL-C).

[4] = 54 umol/kg IV once a week for 4 weeks
[5] = Mus musculus, read-out: Tumor inhibition rate (%) Day 28
[6] = 36 umol/kg IV once a week for 3 weeks

Structure (SMILES) | inhibition in vivo at 54 µmol/kg [1, 5] | Inhibition rate of M2 macrophages (M2 macrophages) | solubility [3] | also measured
COc1cccc2c1C(=O)c1c(O)c3c(c(O)c1C2=O)C[C@@](O)(C(=O)CO)C[C@@H]3O[C@H]1C[C@H](NC(=O)[C@H](CC(C)C)NC(=O)[C@H](CC(N)=O)NC(=O)[C@H](C)NC(=O)[C@H](C)N)[C@H](O)[C@H](C)O1 [AANL-DOX, reference compound] (H-AANL-{Doxorubicin(3'-N)}) | 46% | 16.9% |  | Tumor volume (mm^3) Day 28 [1, 4]: 1564 ± 689.4 mm^3; Activation efficiency (%) ([2]; Table 2-1): 42.1%; Tumor volume (mm^3) Day 28 (HT1080 tumors; [6]): 318.5 ± 197.6 mm^3; inhibition in vivo at 36 µmol/kg (HT1080 tumors; HT-1080, iv, 672 h): 81.8%
CC(NC(=O)CCCCCN1C(=O)C=CC1=O)C(=O)NC(C)C(=O)NC(CC(N)=O)C(=O)Nc1ccc(COC(=O)N2CC3(C2)C(=O)[O][Pt-2]([NH3+])([NH3+])[O]C3=O)cc1 (centres unmarked) [QHL-140-N-CBP] |  | 89.5% | > 10000 µg/mL | 
CC(NC(=O)CCOCCOCCOCCOCCNC(=O)CCN1C(=O)C=CC1=O)C(=O)NC(C)C(=O)NC(CC(N)=O)C(=O)Nc1ccc(COC(=O)N2CC3(C2)C(=O)[O][Pt-2]([NH3+])([NH3+])[O]C3=O)cc1 (centres unmarked) [QHL-092-N-CBP] |  | 75.8% | > 10000 µg/mL | 
COc1cccc2c1C(=O)c1c(O)c3c(c(O)c1C2=O)C[C@@](O)(C(=O)CO)C[C@@H]3O[C@H]1C[C@H](NC(=O)[C@H](CC(C)C)NC(=O)[C@H](CC(N)=O)NC(=O)[C@H](C)NC(=O)[C@H](C)NC(=O)[C@H](CCC(=O)O)NC(=O)CCCCCN2C(=O)C=CC2=O)[C@H](O)[C@H](C)O1 [QHL-117-DOX] ({Hexanoyl(6-maleimido)}-EAANL-{Doxorubicin(3'-N)}) | 100% |  |  | inhibition in vivo at 36 µmol/kg (HT1080 tumors; HT-1080, iv, 672 h): 100%
COCCOCC(=O)N[C@@H](C)C(=O)N[C@@H](C)C(=O)N[C@@H](CC(N)=O)C(=O)N[C@@H](CC(C)C)C(=O)N[C@H]1C[C@H](O[C@H]2C[C@](O)(C(=O)CO)Cc3c(O)c4c(c(O)c32)C(=O)c2c(OC)cccc2C4=O)O[C@@H](C)[C@H]1O [C4 PEG-AANL-DOX, reference compound] (MeOCH2CH2OCH2CO-AANL-{Doxorubicin(3'-N)}) | 70.7% | 10.5% | < 5000 µg/mL | Tumor volume (mm^3) Day 28 [1, 4]: 848.7 ± 347.5 mm^3; Activation efficiency (%) ([2]; Table 2-3): 66.9%
CC(NC(=O)CCCN1C(=O)C=CC1=O)C(=O)NC(C)C(=O)NC(CC(N)=O)C(=O)Nc1ccc(COC(=O)N2CC3(C2)C(=O)[O][Pt-2]([NH3+])([NH3+])[O]C3=O)cc1 (centres unmarked) [QHL-143-N-CBP] |  | 78.4% | > 10000 µg/mL | 
CC(NC(=O)CCOCCOCCOCCOCCOCCOCCNC(=O)CCN1C(=O)C=CC1=O)C(=O)NC(C)C(=O)NC(CC(N)=O)C(=O)Nc1ccc(COC(=O)N2CC3(C2)C(=O)[O][Pt-2]([NH3+])([NH3+])[O]C3=O)cc1 (centres unmarked) [QHL-095-N-CBP] |  | 68.7% | > 10000 µg/mL | 
[NH3+][Pt-2]1([NH3+])[O]C(=O)C2(CNC2)C(=O)[O]1 [N-CBP] |  |  |  | in vitro cytotoxicity (FIGS. 13 and 14) (CT26 tumor cells): stronger than carboplatin and oxaliplatin and weaker than cisplatin
COc1cccc2c1C(=O)c1c(O)c3c(c(O)c1C2=O)C[C@@](O)(C(=O)CO)C[C@@H]3O[C@H]1C[C@H](NC(=O)[C@H](CC(C)C)NC(=O)[C@H](CC(N)=O)NC(=O)[C@H](C)NC(=O)[C@H](C)NC(=O)CCOCCOCCOCCN2C(=O)C=CC2=O)[C@H](O)[C@H](C)O1 [QHL-010-DOX] (X1-AANL-{Doxorubicin(3'-N)}) | 100% |  |  | Tumor volume (mm^3) Day 28 [1, 4]: 0 mm^3; Tumor volume (mm^3) Day 28 (HT1080 tumors; [6]): 0 mm^3; inhibition in vivo at 36 µmol/kg (HT1080 tumors; HT-1080, iv, 672 h): 100%; growth inhibition of tumor, outcome in words (HT1080 tumors; compared with equimolar dose AANL-DOX): the tumor disappeared
COc1cccc2c1C(=O)c1c(O)c3c(c(O)c1C2=O)C[C@@](O)(C(=O)CO)C[C@@H]3O[C@H]1C[C@H](N)[C@H](O)[C@H](C)O1 [DOX, doxorubicin, reference compound] |  |  |  | Tumor volume (mm^3) Day 28 ([1]; DOX 18 umol/kg IV (toxicity limitations)): 1683.4 ± 1087.4 mm^3; inhibition in vivo at 18 µmol/kg ([1]; Mus musculus, HepG2, 672 h, DOX 18 umol/kg IV (toxicity limitations), read-out: Tumor inhibition rate (%) Day 28): 41.9%; inhibition at 10 µM (M2 macrophages; Mus musculus, Macrophage): 12.6%; Tumor volume (mm^3) Day 28 (HT1080 tumors; [6]): 754.4 ± 587.4 mm^3; inhibition in vivo at 36 µmol/kg (HT1080 tumors; HT-1080, 672 h, 36 umol/kg IV once a week for 3 weeks): 56.8%
CC(NC(=O)CCOCCOCCOCCNC(=O)CCN1C(=O)C=CC1=O)C(=O)NC(C)C(=O)NC(CC(N)=O)C(=O)Nc1ccc(COC(=O)N2CC3(C2)C(=O)[O][Pt-2]([NH3+])([NH3+])[O]C3=O)cc1 (centres unmarked) [QHL-089-N-CBP] |  | 97.4% | > 10000 µg/mL | 
COc1cccc2c1C(=O)c1c(O)c3c(c(O)c1C2=O)C[C@@](O)(C(=O)CO)C[C@@H]3O[C@H]1C[C@H](NC(=O)[C@H](CC(C)C)NC(=O)[C@H](CC(N)=O)NC(=O)[C@H](C)NC(=O)[C@H](C)NC(=O)[C@H](CCC(=O)O)NC(=O)CCOCCOCCN2C(=O)C=CC2=O)[C@H](O)[C@H](C)O1 [QHL-021-DOX] (X3-EAANL-{Doxorubicin(3'-N)}) |  | 68.6% |  | 
C[C@H](NC(=O)CCOCCOCCOCCOCCNC(=O)CCN1C(=O)C=CC1=O)C(=O)N[C@@H](C)C(=O)N[C@@H](CC(N)=O)C(=O)N[C@@H](Cc1cc(I)c(Oc2ccc(O)c(I)c2)c(I)c1)C(=O)O [QHL-159-T3] ({Propanoyl(3-maleimido)-PEG4}-AAN[Thyronine(3,5,3'-I3)]-OH) |  |  | > 10000 µg/mL | Change from normal group HDL-C (NAFLD model mice; serum HDL-C): 97.7%; Change from normal group LDL-C (NAFLD model mice; serum LDL-C): 105.3%
